In patent US20070155772A1, “Use of genetic polymorphisms that associate with efficacy of treatment of inflammatory disease” (priority 2003, published 2007):
“And” between values parts separate entries of the source, which are not always exact repeats. Equal values may be shown once.

Experiments:
[1] = system: pediatric subjects with moderate atopic dermatitis; assay: Phase IIIb trial, severity of pruritus score on day 43; format: in vivo, human
From the text: The genetic locus was identified in a Phase IIIb trial that was designed as a head to head comparison of pimecrolimus cream 1% and tacrolimus ointment 0.03%. The six-week investigator-blinded trial of pediatric subjects with moderate atopic dermatitis explored the incidence of local application site reactions induced by the two topical macrolactams, as well as their efficacy, safety and cosmetic acceptability. Blood samples for pharmacogenetic analysis were collected from consenting participants in the clinical trial, to define a genetic basis for response to either treatment.
(§1) Statistical analysis. Investigator global assessment (IGA) scores were used as the primary marker of efficacy in the pharmacogenetic studies. IGA scores at the end of the Investigator Blinded phase of the trial (Day 43) were used as the main time-point for comparison. Last observation carried forward imputations were only required for one subject at day 43. In this case, there was no IGA score available after Day 29, and the score on this day was used in place of a day 43 IGA score. IGA scores were re-coded, as was done to assess efficacy in the trial itself. An IGA score of 0 or 1 was considered successful treatment and IGA scores of 2-5 were counted as treatment failure. The severity of pruritus was also used as a marker of efficacy. Pruritus scores were dichotomized into absence (score=0) or presence (score=1, 2 or 3) of pruritus. The fisher's exact model was employed to examine the genotype effect on each efficacy variable. All statistical analyses were done using SAS version 8.2 software.
Association between polymorphic markers and relief from pruritus. A secondary efficacy variable used in the trial was pruritus. An analysis was done to see if ASN60THR LTA and (−1031) TNF associated with this efficacy variable (assessed on day 43).

[2] = system: pediatric subjects with moderate atopic dermatitis; assay: Phase IIIb trial, efficacy by Investigator global assessment (IGA) score on day 43; format: in vivo, human; details: for Efficacy (IGA): number of patients that experienced efficacy / Efficacy (IGA): percent of patients that experienced efficacy: IGA score of 0 or 1 on day 43
From the text: as §1, with “The genetic locus was identified in a Phase IIIb trial that was designed as a head to head comparison of pimecrolimus cream 1% and tacrolimus ointment 0.03%. The six-week investigator-blinded trial of pediatric subjects with moderate atopic dermatitis explored the incidence of local application site reactions induced by the two topical macrolactams, as well as their efficacy, safety and cosmetic acceptability. Blood samples for pharmacogenetic analysis were collected from consenting participants in the clinical trial, to define a genetic basis for response to either treatment. Statistical” for “Statistical”

[3] = (−1031) TNF genotype CC, day 43
[4] = (−1031) TNF genotype CT, day 43
[5] = (−1031) TNF genotype TT, day 43
[6] = ASN60THR LTA genotype AA, day 43
[7] = ASN60THR LTA genotype AC, day 43
[8] = ASN60THR LTA genotype CC, day 43
[9] = all (−1031) TNF genotypes, day 43
[10] = all ASN60THR LTA genotypes, day 43
[11] = patients with a C allele (CC or CT) at (−1031) TNF, day 43
[12] = VAL63ILE CCR2 (TWT# 47987) genotype AG, day 43
[13] = VAL63ILE CCR2 (TWT# 47987) genotype GG, day 43
[14] = all VAL63ILE CCR2 genotypes, day 43

CC[C@@H]1/C=C(\C)C[C@H](C)C[C@H](OC)[C@H]2O[C@@](O)(C(=O)C(=O)N3CCCC[C@H]3C(=O)O[C@H](/C(C)=C/[C@@H]3CC[C@H](Cl)[C@H](OC)C3)[C@H](C)[C@@H](O)CC1=O)[C@H](C)C[C@@H]2OC [pimecrolimus]
Pruritus (day 43) score 0, percent of subjects ([1]; Pharmacogenomics samples): 10% | Pruritus (day 43) score 1, number of subjects ([1]; Pharmacogenomics samples): 14 | Pruritus (day 43) score 1, percent of subjects ([1]; Pharmacogenomics samples): 67% | Pruritus (day 43) score 2, number of subjects ([1]; Pharmacogenomics samples): 3 | Pruritus (day 43) score 2, percent of subjects ([1]; Pharmacogenomics samples): 14% | Pruritus (day 43) score 3, number of subjects ([1]; Pharmacogenomics samples): 2 | Pruritus (day 43) score 3, percent of subjects ([1]; Pharmacogenomics samples): 10% | Pruritus (day 43) score 0, number of subjects ([1]; Trial subjects): 9 | Pruritus (day 43) score 0, percent of subjects ([1]; Trial subjects): 13% | Pruritus (day 43) score 1, number of subjects ([1]; Trial subjects): 35 | Pruritus (day 43) score 1, percent of subjects ([1]; Trial subjects): 49% | Pruritus (day 43) score 2, number of subjects ([1]; Trial subjects): 15 | Pruritus (day 43) score 2, percent of subjects ([1]; Trial subjects): 21% | Pruritus (day 43) score 3, number of subjects ([1]; Trial subjects): 10 | Pruritus (day 43) score 3, percent of subjects ([1]; Trial subjects): 14% | No success (IGA ≧ 2), number of individuals [2, 3]: 1 | No success (IGA ≧ 2), percent [2, 3]: 100% | Success (IGA = 0 or 1), number of individuals [2, 3]: 0 (0%) | Success (IGA = 0 or 1), percent [2, 3]: 0 (0%) | No success (IGA ≧ 2), number of individuals [2, 4]: 9 | No success (IGA ≧ 2), percent [2, 4]: 100% | Success (IGA = 0 or 1), number of individuals [2, 4]: 0 | Success (IGA = 0 or 1), percent [2, 4]: 100% | No success (IGA ≧ 2), number of individuals [2, 5]: 4 | No success (IGA ≧ 2), percent [2, 5]: 33% | Success (IGA = 0 or 1), number of individuals [2, 5]: 8 | Success (IGA = 0 or 1), percent [2, 5]: 67% | No success (IGA ≧ 2), number of individuals [2, 6]: 0 (0%) | No success (IGA ≧ 2), percent [2, 6]: 0 (0%) | Success (IGA = 0 or 1), number of individuals [2, 6]: 3/3 and 3 | Success (IGA = 0 or 1), percent [2, 6]: 100% | No success (IGA ≧ 2), number of individuals [2, 7]: 6 | No success (IGA ≧ 2), percent [2, 7]: 60% | Success (IGA = 0 or 1), number of individuals [2, 7]: 4/10 and 4 | Success (IGA = 0 or 1), percent [2, 7]: 40% | No success (IGA ≧ 2), number of individuals [2, 8]: 8 | No success (IGA ≧ 2), percent [2, 8]: 89% | Success (IGA = 0 or 1), number of individuals [2, 8]: 1 | Success (IGA = 0 or 1), percent [2, 8]: 11% | No success (IGA ≧ 2), number of individuals ([2]; LTB (TWT#128095) genotype AC): 0 | No success (IGA ≧ 2), percent ([2]; LTB (TWT#128095) genotype AC): 50% | Success (IGA = 0 or 1), number of individuals ([2]; LTB (TWT#128095) genotype AC): 1 | Success (IGA = 0 or 1), percent ([2]; LTB (TWT#128095) genotype AC): 100% | No success (IGA ≧ 2), number of individuals ([2]; LTB (TWT#128095) genotype CC): 12 | No success (IGA ≧ 2), percent ([2]; LTB (TWT#128095) genotype CC): 63% | Success (IGA = 0 or 1), number of individuals ([2]; LTB (TWT#128095) genotype CC): 7 | Success (IGA = 0 or 1), percent ([2]; LTB (TWT#128095) genotype CC): 37% | Efficacy (IGA): number of patients that experienced efficacy ([2]; Pharmacogenomics samples): 8 | Efficacy (IGA): percent of patients that experienced efficacy ([2]; Pharmacogenomics samples): 36% | Efficacy (IGA): number of patients that experienced efficacy ([2]; Trial subjects): 22 | Efficacy (IGA): percent of patients that experienced efficacy ([2]; Trial subjects): 32% | No success (IGA ≧ 2), number of individuals, Total [2, 9]: 14 | Success (IGA = 0 or 1), number of individuals, Total [2, 9]: 8 | No success (IGA ≧ 2), number of individuals, Total [2, 10]: 13 | Success (IGA = 0 or 1), number of individuals, Total [2, 10]: 7 | No success (IGA ≧ 2), number of individuals, Total ([2]; all LTB (TWT#128095) genotypes): 12 | Success (IGA = 0 or 1), number of individuals, Total ([2]; all LTB (TWT#128095) genotypes): 8 | subjects that responded to treatment (IGA) [2, 11]: None and No patient | success / response rate (IGA) [2, 11]: 0%

C=CC[C@@H]1/C=C(\C)C[C@H](C)C[C@H](OC)[C@H]2O[C@@](O)(C(=O)C(=O)N3CCCC[C@H]3C(=O)O[C@H](/C(C)=C/[C@@H]3CC[C@@H](O)[C@H](OC)C3)[C@H](C)[C@@H](O)CC1=O)[C@H](C)C[C@@H]2OC [tacrolimus]
Pruritus (day 43) score 0, number of subjects ([1]; Pharmacogenomics samples): 5 | Pruritus (day 43) score 0, percent of subjects ([1]; Pharmacogenomics samples): 20% | Pruritus (day 43) score 1, number of subjects ([1]; Pharmacogenomics samples): 10 | Pruritus (day 43) score 1, percent of subjects ([1]; Pharmacogenomics samples): 40% | Pruritus (day 43) score 2, number of subjects ([1]; Pharmacogenomics samples): 7 | Pruritus (day 43) score 2, percent of subjects ([1]; Pharmacogenomics samples): 28% | Pruritus (day 43) score 3, number of subjects ([1]; Pharmacogenomics samples): 3 | Pruritus (day 43) score 3, percent of subjects ([1]; Pharmacogenomics samples): 12% | Pruritus (day 43) score 0, number of subjects ([1]; Trial subjects): 11 | Pruritus (day 43) score 0, percent of subjects ([1]; Trial subjects): 16% | Pruritus (day 43) score 1, number of subjects ([1]; Trial subjects): 35 | Pruritus (day 43) score 1, percent of subjects ([1]; Trial subjects): 50% | Pruritus (day 43) score 2, number of subjects ([1]; Trial subjects): 19 | Pruritus (day 43) score 2, percent of subjects ([1]; Trial subjects): 27% | Pruritus (day 43) score 3, number of subjects ([1]; Trial subjects): 3 | Pruritus (day 43) score 3, percent of subjects ([1]; Trial subjects): 4% | No success (IGA ≧ 2), number of individuals [2, 3]: 1 | No success (IGA ≧ 2), percent [2, 3]: 50% | Success (IGA = 0 or 1), number of individuals [2, 3]: 1 | Success (IGA = 0 or 1), percent [2, 3]: 50% | No success (IGA ≧ 2), number of individuals [2, 4]: 2 | No success (IGA ≧ 2), percent [2, 4]: 40% | Success (IGA = 0 or 1), number of individuals [2, 4]: 3 | Success (IGA = 0 or 1), percent [2, 4]: 60% | No success (IGA ≧ 2), number of individuals [2, 5]: 8 | No success (IGA ≧ 2), percent [2, 5]: 47% | Success (IGA = 0 or 1), number of individuals [2, 5]: 9 | Success (IGA = 0 or 1), percent [2, 5]: 53% | No success (IGA ≧ 2), number of individuals [2, 6]: 3 | No success (IGA ≧ 2), percent [2, 6]: 43% | Success (IGA = 0 or 1), number of individuals [2, 6]: 4 | Success (IGA = 0 or 1), percent [2, 6]: 57% | No success (IGA ≧ 2), number of individuals [2, 7]: 4 | No success (IGA ≧ 2), percent [2, 7]: 40% | Success (IGA = 0 or 1), number of individuals [2, 7]: 6 | Success (IGA = 0 or 1), percent [2, 7]: 60% | No success (IGA ≧ 2), number of individuals [2, 8]: 4 | No success (IGA ≧ 2), percent [2, 8]: 57% | Success (IGA = 0 or 1), number of individuals [2, 8]: 3 | Success (IGA = 0 or 1), percent [2, 8]: 42% | No success (IGA ≧ 2), number of individuals ([2]; LTB (TWT#128095) genotype AC): 3 | No success (IGA ≧ 2), percent ([2]; LTB (TWT#128095) genotype AC): 60% | Success (IGA = 0 or 1), number of individuals ([2]; LTB (TWT#128095) genotype AC): 2 | Success (IGA = 0 or 1), percent ([2]; LTB (TWT#128095) genotype AC): 40% | No success (IGA ≧ 2), number of individuals ([2]; LTB (TWT#128095) genotype CC): 8 | No success (IGA ≧ 2), percent ([2]; LTB (TWT#128095) genotype CC): 44% | Success (IGA = 0 or 1), number of individuals ([2]; LTB (TWT#128095) genotype CC): 10 | Success (IGA = 0 or 1), percent ([2]; LTB (TWT#128095) genotype CC): 56% | Efficacy (IGA): number of patients that experienced efficacy ([2]; Pharmacogenomics samples): 13 | Efficacy (IGA): percent of patients that experienced efficacy ([2]; Pharmacogenomics samples): 52% | Efficacy (IGA): number of patients that experienced efficacy ([2]; Trial subjects): 27 | Efficacy (IGA): percent of patients that experienced efficacy ([2]; Trial subjects): 40% | No success (IGA ≧ 2), number of individuals [2, 12]: 2 | No success (IGA ≧ 2), percent [2, 12]: 20% | Success (IGA = 0 or 1), number of individuals [2, 12]: 8/10 and 8 | Success (IGA = 0 or 1), percent [2, 12]: 80% | No success (IGA ≧ 2), number of individuals [2, 13]: 9 | No success (IGA ≧ 2), percent [2, 13]: 69% | Success (IGA = 0 or 1), number of individuals [2, 13]: 4/13 and 4 | Success (IGA = 0 or 1), percent [2, 13]: 31% | No success (IGA ≧ 2), number of individuals, Total [2, 9]: 11 | Success (IGA = 0 or 1), number of individuals, Total [2, 9]: 13 | No success (IGA ≧ 2), number of individuals, Total [2, 10]: 11 | Success (IGA = 0 or 1), number of individuals, Total [2, 10]: 13 | No success (IGA ≧ 2), number of individuals, Total ([2]; all LTB (TWT#128095) genotypes): 11 | Success (IGA = 0 or 1), number of individuals, Total ([2]; all LTB (TWT#128095) genotypes): 12 | No success (IGA ≧ 2), number of individuals, Total [2, 14]: 11 | Success (IGA = 0 or 1), number of individuals, Total [2, 14]: 12
